Converted amounts (≈) assume the structure as drawn. Blank lines part the entries; values can stand above or below the molecule they belong to.
What was measured:
Assay type in all cases: functional
Staphylococcus aureus [1] = assay: Antibacterial activity against Staphylococcus aureus ATCC 25923 assessed as reduction in visible bacterial growth incubated for 18 to 20 hrs by CLSI based broth microdilution analysis; settings: time 18-20 hrs
Enterococcus faecium [2] = assay: Antibacterial activity against vancomycin-resistant Enterococcus faecium ATCC 700221 assessed as reduction in visible bacterial growth incubated for 18 to 20 hrs by CLSI based broth microdilution analysis; settings: time 18-20 hrs
Staphylococcus aureus [3] = assay: Antibacterial activity against methicillin-resistant Staphylococcus aureus ATCC 33592 assessed as reduction in visible bacterial growth incubated for 18 to 20 hrs by CLSI based broth microdilution analysis; settings: time 18-20 hrs
Listeria monocytogenes = assay: Antibacterial activity against Listeria monocytogenes ATCC 19115 assessed as reduction in visible bacterial growth incubated for 18 to 20 hrs by CLSI based broth microdilution analysis; settings: time 18-20 hrs
Enterococcus faecalis [4] = assay: Antibacterial activity against Enterococcus faecalis ATCC 29212 assessed as reduction in visible bacterial growth incubated for 18 to 20 hrs by CLSI based broth microdilution analysis; settings: time 18-20 hrs
Enterococcus faecalis [5] = assay: Antibacterial activity against vancomycin-resistant Enterococcus faecalis ATCC 51575 assessed as reduction in visible bacterial growth incubated for 18 to 20 hrs by CLSI based broth microdilution analysis; settings: time 18-20 hrs
Staphylococcus aureus [6] = assay: Antibacterial activity against methicillin-resistant Staphylococcus aureus USA 300 assessed as reduction in visible bacterial growth incubated for 18 to 20 hrs by CLSI based broth microdilution analysis; settings: time 18-20 hrs
Enterococcus faecium [7] = assay: (§1) Antibiofilm activity against vancomycin-resistant Enterococcus faecium ATCC 700221 in TSB broth assessed as dispersal of glucose-induced biofilm preincubated with glucose for 48 hrs followed by compound addition and measured after 24 hrs by crystal violet staining based analysis
Staphylococcus aureus [8] = assay: (§2) Antibiofilm activity against methicillin-resistant Staphylococcus aureus USA 300 in TSB broth assessed as dispersal of glucose-induced biofilm preincubated with glucose for 48 hrs followed by compound addition and measured after 24 hrs by crystal violet staining based analysis
Enterococcus faecalis [9] = assay: (§3) Antibiofilm activity against vancomycin-resistant Enterococcus faecalis ATCC 51575 in TSB broth assessed as dispersal of glucose-induced biofilm preincubated with glucose for 48 hrs followed by compound addition and measured after 24 hrs by crystal violet staining based analysis
Enterococcus faecium [10] = assay: as §1, with “Synergistic antibiofilm” for “Antibiofilm”, “biofilm by measuring Nitroxoline MBEC” for “biofilm”, “checkerboard assay” for “analysis”
Staphylococcus aureus [11] = assay: as §2, with “Synergistic antibiofilm” for “Antibiofilm”, “biofilm by measuring Nitroxoline MBEC” for “biofilm”, “checkerboard assay” for “analysis”
Staphylococcus aureus [12] = assay: as §2, with “Synergistic antibiofilm” for “Antibiofilm”, “biofilm by measuring Bithionol MBEC” for “biofilm”, “checkerboard assay” for “analysis”
Staphylococcus aureus [13] = assay: (§4) Synergistic antibiofilm activity against methicillin-resistant Staphylococcus aureus USA 300 in TSB broth assessed as dispersal of glucose-induced biofilm preincubated with glucose for 48 hrs followed by compound addition and further incubated for 24 hrs in presence of Nitroxoline by crystal violet staining based checkerboard assay
Staphylococcus aureus [14] = assay: as §4, with “Bithionol” for “Nitroxoline”
Staphylococcus aureus [15] = assay: as §4, with “glucose-induced biofilm by measuring fractional inhibitory concentration index preincubated with” for “glucose-induced biofilm preincubated with”
Staphylococcus aureus [16] = assay: (§5) Synergistic antibiofilm activity against methicillin-resistant Staphylococcus aureus USA 300 in TSB broth assessed as dispersal of glucose-induced biofilm by measuring fractional inhibitory concentration index preincubated with glucose for 48 hrs followed by compound addition and further incubated for 24 hrs in presence of Bithionol by crystal violet staining based checkerboard assay
Enterococcus faecalis [17] = assay: as §3, with “Synergistic antibiofilm” for “Antibiofilm”, “biofilm by measuring Nitroxoline MBEC” for “biofilm”, “checkerboard assay” for “analysis”
Enterococcus faecalis [18] = assay: as §3, with “Synergistic antibiofilm” for “Antibiofilm”, “biofilm by measuring Bithionol MBEC” for “biofilm”, “checkerboard assay” for “analysis”
Enterococcus faecalis [19] = assay: as §4, with “vancomycin-resistant Enterococcus faecalis ATCC 51575” for “methicillin-resistant Staphylococcus aureus USA 300”
Enterococcus faecalis [20] = assay: as §4, with “vancomycin-resistant Enterococcus faecalis ATCC 51575” for “methicillin-resistant Staphylococcus aureus USA 300”, “Bithionol” for “Nitroxoline”
Enterococcus faecalis [21] = assay: as §5, with “vancomycin-resistant Enterococcus faecalis ATCC 51575” for “methicillin-resistant Staphylococcus aureus USA 300”, “Nitroxoline” for “Bithionol”
Enterococcus faecalis [22] = assay: as §5, with “vancomycin-resistant Enterococcus faecalis ATCC 51575” for “methicillin-resistant Staphylococcus aureus USA 300”
Enterococcus faecium [23] = assay: as §1, with “Synergistic antibiofilm” for “Antibiofilm”, “biofilm […]” for “biofilm”, “checkerboard assay” for “analysis”
Enterococcus faecium [24] = assay: as §4, with “vancomycin-resistant Enterococcus faecium ATCC 700221” for “methicillin-resistant Staphylococcus aureus USA 300”
Enterococcus faecium [25] = assay: as §4, with “vancomycin-resistant Enterococcus faecium ATCC 700221” for “methicillin-resistant Staphylococcus aureus USA 300”, “Bithionol” for “Nitroxoline”
Enterococcus faecium [26] = assay: as §5, with “vancomycin-resistant Enterococcus faecium ATCC 700221” for “methicillin-resistant Staphylococcus aureus USA 300”, “Nitroxoline” for “Bithionol”
Enterococcus faecium [27] = assay: as §5, with “vancomycin-resistant Enterococcus faecium ATCC 700221” for “methicillin-resistant Staphylococcus aureus USA 300”
Staphylococcus aureus [28] = assay: Antibacterial activity against methicillin-resistant Staphylococcus aureus USA 300 (ARLG 1561) assessed as reduction in visible bacterial growth incubated for 18 to 20 hrs by CLSI based broth microdilution analysis; settings: time 18-20 hrs
Staphylococcus aureus [29] = assay: Antibacterial activity against methicillin-resistant Staphylococcus aureus USA 300 (ARLG 1567) assessed as reduction in visible bacterial growth incubated for 18 to 20 hrs by CLSI based broth microdilution analysis; settings: time 18-20 hrs
Staphylococcus aureus [30] = assay: Antibacterial activity against methicillin-resistant Staphylococcus aureus USA 300 (ARLG 1568) assessed as reduction in visible bacterial growth incubated for 18 to 20 hrs by CLSI based broth microdilution analysis; settings: time 18-20 hrs
Staphylococcus aureus [31] = assay: Antibacterial activity against methicillin-resistant Staphylococcus aureus USA 300 (ARLG 1569) assessed as reduction in visible bacterial growth incubated for 18 to 20 hrs by CLSI based broth microdilution analysis; settings: time 18-20 hrs
Staphylococcus aureus [32] = assay: Antibacterial activity against methicillin-resistant Staphylococcus aureus USA 300 (ARLG 1570) assessed as reduction in visible bacterial growth incubated for 18 to 20 hrs by CLSI based broth microdilution analysis; settings: time 18-20 hrs
Staphylococcus aureus [33] = assay: Antibacterial activity against methicillin-resistant Staphylococcus aureus USA 300 (ARLG 1644) assessed as reduction in visible bacterial growth incubated for 18 to 20 hrs by CLSI based broth microdilution analysis; settings: time 18-20 hrs
Staphylococcus aureus [34] = assay: Antibacterial activity against methicillin-resistant Staphylococcus aureus USA 300 (ARLG 1649) assessed as reduction in visible bacterial growth incubated for 18 to 20 hrs by CLSI based broth microdilution analysis; settings: time 18-20 hrs
Staphylococcus aureus [35] = assay: Antibacterial activity against methicillin-resistant Staphylococcus aureus USA 300 (ARLG 1663) assessed as reduction in visible bacterial growth incubated for 18 to 20 hrs by CLSI based broth microdilution analysis; settings: time 18-20 hrs
Staphylococcus aureus [36] = assay: Antibacterial activity against methicillin-resistant Staphylococcus aureus USA 300 (ARLG 1665) assessed as reduction in visible bacterial growth incubated for 18 to 20 hrs by CLSI based broth microdilution analysis; settings: time 18-20 hrs
Staphylococcus aureus [37] = assay: Induction of drug resistance in methicillin-resistant Staphylococcus aureus USA 300 assessed as fold increase in MIC treated daily for 30 days; settings: time 30.0 day
Staphylococcus aureus [38] = assay: Induction of drug resistance in methicillin-resistant Staphylococcus aureus ATCC 33592 assessed as fold increase in MIC treated daily for 30 days; settings: time 30.0 day

- MIC (Staphylococcus aureus [1]): 4 µg/mL (≈ 12.4 µM)
SMILES: COc1ccc2c(c1)[C@H]1[C@@H]3CC[C@@H](C3)[C@H]1[C@H](c1ccc(O)cc1)N2

SMILES: Oc1ccc([C@@H]2Nc3ccc(SC(F)(F)F)cc3[C@H]3[C@@H]4CC[C@@H](C4)[C@H]32)cc1
- MIC (Enterococcus faecium [2]): 2 µg/mL (≈ 5.11 µM)
- MIC (Staphylococcus aureus [3]): 2 µg/mL (≈ 5.11 µM)
- MIC (Staphylococcus aureus [1]): 2 µg/mL (≈ 5.11 µM)
- MIC (Listeria monocytogenes): 2 µg/mL (≈ 5.11 µM)
- MIC (Enterococcus faecalis [4]): 2 µg/mL (≈ 5.11 µM)
- MIC (Enterococcus faecalis [5]): 2 µg/mL (≈ 5.11 µM)
- MIC (Staphylococcus aureus [6]): 2 µg/mL (≈ 5.11 µM)

- MIC (Staphylococcus aureus [1]): > 16 µg/mL
SMILES: Oc1ccc([C@@H]2Nc3ccc(OC(F)(F)F)cc3[C@H]3[C@@H]4CC[C@@H](C4)[C@H]32)cc1

SMILES: Oc1c(Cl)cc(Cl)cc1Sc1cc(Cl)cc(Cl)c1O [BITHIONOL]
- MBEC (Enterococcus faecium [7]): 8 µg/mL
- MBEC (Staphylococcus aureus [8]): 8 µg/mL
- MBEC (Enterococcus faecalis [9]): 8 µg/mL

- MIC (Staphylococcus aureus [1]): 4 µg/mL (≈ 10.7 µM)
SMILES: Oc1ccc([C@@H]2Nc3c(OC(F)(F)F)cccc3[C@H]3[C@@H]4CC[C@@H](C4)[C@H]32)cc1

- MIC (Staphylococcus aureus [1]): > 16 µg/mL
SMILES: FS(F)(F)(F)(F)c1ccc2c(c1)[C@H]1[C@@H]3CC[C@@H](C3)[C@H]1[C@H](c1ccccc1)N2

SMILES: FC(F)(F)c1n[nH]cc1[C@@H]1Nc2ccc(S(F)(F)(F)(F)F)cc2[C@H]2[C@@H]3CC[C@@H](C3)[C@H]21
- MBEC (Enterococcus faecium [10]): 2 µg/mL
- MBEC (Enterococcus faecium [7]): 32 µg/mL
- MBEC (Staphylococcus aureus [8]): 32 µg/mL
- MBEC (Staphylococcus aureus [11]): 2 µg/mL
- MBEC (Staphylococcus aureus [12]): 2 µg/mL
- MBEC (Staphylococcus aureus [13]): 8 µg/mL
- MBEC (Staphylococcus aureus [14]): 1 µg/mL
- fractional inhibitory concentration index (FICI) (Staphylococcus aureus [15]): 0.38
- fractional inhibitory concentration index (FICI) (Staphylococcus aureus [16]): 0.28
- MBEC (Enterococcus faecalis [9]): 32 µg/mL
- MBEC (Enterococcus faecalis [17]): 2 µg/mL
- MBEC (Enterococcus faecalis [18]): 2 µg/mL
- MBEC (Enterococcus faecalis [19]): 1 µg/mL
- MBEC (Enterococcus faecalis [20]): 1 µg/mL
- fractional inhibitory concentration index (FICI) (Enterococcus faecalis [21]): 0.25
- fractional inhibitory concentration index (FICI) (Enterococcus faecalis [22]): 0.28
- MBEC (Enterococcus faecium [23]): 4 µg/mL
- MBEC (Enterococcus faecium [24]): 1 µg/mL
- MBEC (Enterococcus faecium [25]): 1 µg/mL
- fractional inhibitory concentration index (FICI) (Enterococcus faecium [26]): 0.16
- fractional inhibitory concentration index (FICI) (Enterococcus faecium [27]): 0.28

SMILES: CC(=O)NC[C@H]1CN(c2ccc(N3CCOCC3)c(F)c2)C(=O)O1 [LINEZOLID]
- MBC (Enterococcus faecium [2]): > 128 µg/mL
- MIC (Enterococcus faecium [2]): 1 µg/mL (≈ 2.96 µM)
- MBC (Staphylococcus aureus [3]): 64 µg/mL (≈ 190 µM)
- MBC (Staphylococcus aureus [1]): 64 µg/mL (≈ 190 µM)
- MIC (Listeria monocytogenes): 2 µg/mL (≈ 5.93 µM)
- MBC (Enterococcus faecalis [4]): 64 µg/mL (≈ 190 µM)
- MBC (Enterococcus faecalis [5]): > 128 µg/mL
- MBC (Staphylococcus aureus [6]): 128 µg/mL (≈ 379 µM)
- MBC (Staphylococcus aureus [28]): 64 µg/mL (≈ 190 µM)
- MIC (Staphylococcus aureus [28]): 1 µg/mL (≈ 2.96 µM)
- MBC (Staphylococcus aureus [29]): > 64 µg/mL
- MIC (Staphylococcus aureus [29]): 1 µg/mL (≈ 2.96 µM)
- MBC (Staphylococcus aureus [30]): > 64 µg/mL
- MIC (Staphylococcus aureus [30]): 1 µg/mL (≈ 2.96 µM)
- MBC (Staphylococcus aureus [31]): 64 µg/mL (≈ 190 µM)
- MIC (Staphylococcus aureus [31]): 1 µg/mL (≈ 2.96 µM)
- MBC (Staphylococcus aureus [32]): 64 µg/mL (≈ 190 µM)
- MIC (Staphylococcus aureus [32]): 1 µg/mL (≈ 2.96 µM)
- MBC (Staphylococcus aureus [33]): > 64 µg/mL
- MIC (Staphylococcus aureus [33]): 1 µg/mL (≈ 2.96 µM)
- MBC (Staphylococcus aureus [34]): > 64 µg/mL
- MIC (Staphylococcus aureus [34]): 1 µg/mL (≈ 2.96 µM)
- MBC (Staphylococcus aureus [35]): > 64 µg/mL
- MIC (Staphylococcus aureus [35]): 1 µg/mL (≈ 2.96 µM)
- MBC (Staphylococcus aureus [36]): > 64 µg/mL
- MIC (Staphylococcus aureus [36]): 1 µg/mL (≈ 2.96 µM)

- MIC (Staphylococcus aureus [1]): 4 µg/mL (≈ 9.58 µM)
SMILES: Oc1ccccc1[C@@H]1Nc2ccc(S(F)(F)(F)(F)F)cc2[C@H]2[C@@H]3CC[C@@H](C3)[C@H]21

SMILES: C/C(=C\C(=O)OCCCCCCCCC(=O)O)C[C@@H]1OC[C@H](C[C@@H]2O[C@H]2[C@@H](C)[C@H](C)O)[C@@H](O)[C@H]1O
- fold change (FC) (Staphylococcus aureus [37]): > 60
- fold change (FC) (Staphylococcus aureus [38]): > 250

- MIC (Staphylococcus aureus [1]): 4 µg/mL (≈ 12.2 µM)
SMILES: Oc1ccc([C@@H]2Nc3cc(F)cc(F)c3[C@H]3[C@@H]4CC[C@@H](C4)[C@H]32)cc1

- MIC (Staphylococcus aureus [1]): 4 µg/mL (≈ 11.1 µM)
SMILES: Oc1ccc([C@@H]2Nc3c(ccc(Cl)c3Cl)[C@H]3[C@@H]4CC[C@@H](C4)[C@H]32)cc1
